What was measured:
[1] = system: AAV-A53T injected C57BL/6J mice; assay: AAV-α-syn A53T-injected mouse model; format: in vivo
Procedure: Male C57BL/6J mice (7 week-age-old) were used for inducing the α-syn A53T model and treating Vuti and vehicle. All mice were maintained in a specific pathogen-free animal facility under a 12:12-h light-dark cycle (lights on at 8:00 AM) at a temperature of 21℃ and allowed ad libitum access to food and water. All experiments and animal care were performed in accordance with the guidelines of the Institutional Animal Care and Use Committee (IACUC) of IBS, Daejeon, South Korea (IBS-IBC-2022-12). Mice were anesthetized under isoflurane anesthesia (induction: 3%–4%, maintenance: 1.5%–2%) and placed into stereotaxic (RWD, China). For establishing the α-syn A53T mouse model, 2µL of AAV-CMV-A53T-Asyn or AAV-CMV-EGFP (5 × 10^12 genomic copies/mL, packaged by the IBS virus facility) was injected into the SNpc (AP − 3.2 mm, ML ± 1.3 mm, DV − 4.0 mm relative to the bregma; 0.2µL/min) bilaterally. Oral administration of 50 mg/kg Vuti (Vuti 50) or the vehicle (Veh) was started 5 weeks after the virus injection, once a day for 12 weeks. Mice were used for behavior tests and immunostaining after completing drug treatment. Vertical grid test was performed as described before. For 5 days, mice were allowed for habituation in the test room. Prior to the trial session, the mice were acclimated to the vertical grid for 2 days. For the experiment, individual mice were gently placed 3 cm from the top, facing upward, and allowed to turn around and climb down. […] Starting from the fourth week after the injection, trials are conducted at two-week intervals.
Mice were deeply anaesthetized with isoflurane and perfused transcranial with 0.9% saline ice-cold 4% paraformaldehyde (PFA). Excised brains were postfixed at 4 °C overnight and transferred to 30% sucrose for 48 h for dehydration. Coronal sections of 30 μm thickness (20 μm thickness for super-resolution imaging) were prepared in a cryostat and stored in a storage solution at 4 °C. Brain tissues were washed in PBS and incubated in a blocking solution (0.3% Triton X-100, 2% Donkey Serum, 2% Goat Serum in 0.1 M PBS). Primary antibodies were added to the blocking solution at desired dilution and the sections were incubated in a shaker at 4 °C overnight. Primary antibodies used for immunostaining were anti-TH (rabbit, 1:200, Pel-freez, P40101-150), GFAP (chicken, 1:500, Millipore, AB5541), Iba-1 (rabbit, 1:500, Wako, 019-19741), DDC (rabbit, 1:200, abCam, ab3905), GABA (guinea pig, 1:200, Millipore, AB175), anti-PON2 (rabbit, 1:200, abCam, ab183710). Unbound antibodies were washed off using PBS, followed by corresponding secondary antibody incubation (in blocking solution) for 1–2 h at room temperature. Unbound antibodies were washed with PBS and DAPI was added to PBS (1:1500 dilution). Sections were mounted with fluorescent mounting medium (Dako) and dried. A series of fluorescent images were obtained using Zeiss LSM900 confocal microscope. Super-resolution image for PON2 signals imaged by Zeiss Lattice SIM (Structure-illumination microscope) and all images were processed using ImageJ (Fiji) software.

[2] = target: T1, MAO-B (Homo sapiens, UniProt P27338); assay: HRP/Amplex red based MAO-B enzyme activity assay; format: biochemical; settings: read-out: IC50, MAO-B assay, HRP/AR method
T1 sequence (P27338 1-520): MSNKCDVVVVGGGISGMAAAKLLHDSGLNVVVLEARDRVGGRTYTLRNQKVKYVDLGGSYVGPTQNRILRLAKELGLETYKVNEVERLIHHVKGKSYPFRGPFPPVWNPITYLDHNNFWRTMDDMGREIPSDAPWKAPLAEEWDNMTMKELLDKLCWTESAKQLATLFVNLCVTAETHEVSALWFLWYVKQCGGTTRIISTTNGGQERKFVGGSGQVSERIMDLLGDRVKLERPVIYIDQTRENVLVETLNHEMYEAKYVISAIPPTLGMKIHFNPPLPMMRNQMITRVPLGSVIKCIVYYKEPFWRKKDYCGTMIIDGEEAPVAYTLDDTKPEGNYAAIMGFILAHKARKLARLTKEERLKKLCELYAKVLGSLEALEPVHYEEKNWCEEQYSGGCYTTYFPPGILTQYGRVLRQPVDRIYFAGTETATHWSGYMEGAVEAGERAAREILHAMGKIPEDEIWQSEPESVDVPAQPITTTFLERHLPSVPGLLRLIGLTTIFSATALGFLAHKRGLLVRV
Procedure: MAO-A or MAO-B enzyme solutions were prepared by diluting 10 µL of a 2.5 mg/mL MAO-A or MAO-B stock into 10 mL of 50 mM sodium phosphate buffer (pH 7.4). A substrate assay mixture was then prepared by combining benzylamine (for MAO-B) or tyramine (for MAO-A) from a 100 mM stock (200 µL in 10 mL phosphate buffer, final concentration 1 mM) with 100 µL of a 20 mM AR reagent stock (final concentration 0.1 mM) and 100 µL of a 200 U/mL HRP stock (final concentration 1 U/mL) in 10 mL phosphate buffer. […] Next, 50 µL of the substrate assay mixture was added, and the reaction was carried out at 37 °C for 60 min. The production of resorufin was quantified by fluorescence measurement (excitation at 540 nm and emission at 580 nm).

[3] = system: Sprague-Dawley rats; assay: Functional observational battery (FOB) evaluation; format: in vivo, rat; settings: male SD rats, single oral 500, 1000, 2000 mg/kg; 0.5, 1, 3, 6, 24 h
Procedure: To further investigate the potential neurotoxicity of Vuti in vivo, a standard functional observational battery (FOB) evaluation was performed. Male Sprague-Dawley rats were administered single high doses of Vuti – 500, 1000, and 2000 mg/kg. Subsequently, two observers blindly scored the behavior of animals in the home cage, open field, hand-held, and sensory-motor function at time points of 0.5, 1, 3, 6, and 24 h.
Male 6-week-old Sprague-Dawley Rat was orally administered with 0, 500, 1000, or 2000 mg/kg of Vuti (n = 8 per group). Two observers performed blind observations following the standard guideline (3) at 0.5, 1-, 3-, 6-, and 24-hours post-dose on the basis of the pharmacokinetics parameters. […] NC = No change, NSC = No statistically significant change.

Structure (SMILES): CCOc1ccc(C2COc3c(ccc4c3CCC(C)(C)O4)C2)c(O)c1 (stereo not shown) [Vuti, Vutiglabridin]
- GFAP and Iba1 levels (astrocytes and microglia) ([1]; A53T mice, Vuti 50 mg/kg): normalization
- amount of GABA in astrocytes ([1]; A53T mice, Vuti 50 mg/kg): decrease
- intracellular α-syn levels ([1]; A53T mice, Vuti 50 mg/kg): decreased
- step failure in the vertical grid test ([1]; A53T mice, Vuti 50 mg/kg oral from week 5, within 5 to 7 weeks of administration (weeks 10-12)): statistically significant improvements
- DDC-positive cells in SNpc ([1]; A53T mice, Vuti 50 mg/kg, 12 weeks after AAV-A53T injection): significantly increased
- TH-positive cells in SNpc ([1]; A53T mice, Vuti 50 mg/kg, 12 weeks after AAV-A53T injection, vs vehicle): significant increase
- PON2 protein level ([1]; A53T mouse model and WT + Vuti group, IHC and Western blot): remained unchanged
- TH+/DDC+ ratio ([1]; α-syn A53T overexpressed PD model): doubled
- IC50 [2]: 425 µM
- behaviors in FOB (home cage, open field, hand-held, sensory-motor function) [3]: did not induce statistically significant changes
